Assay results published in patent US20130053392A1, “CARBONIC ANHYDRASE INHIBITORS” (priority 2010, published 2013).
pKi: −log10 of the molar value. Entries after “also recorded” stand apart in the source; their conditions may differ.

Legend:
[1] = prior art compound (Winum et al); cited from earlier work
MDA-231 GFP cells = experiment: Cell migration (scratch wound) assay, MDA-231; assay type: cell-based; conditions: 33 μM preliminary screen, 24 h, MDA231, FIG. 7/8
Description: A cell migration assay was performed as follows. A coverslip was placed in a 3 cm dish and 0.5×10^6 cells (in 10% FCS-RPMI) was seeded, per 3 cm dish. The cells were left to grow for 24 hours so as to obtain a confluent layer of cells on the coverslip and a scratch was made with a pipette tip (p200) and loosely attached cells were washed off. The medium was replaced with a low serum (0.2% serum) medium to reduce the level of proliferation.
Cells were fixed in buffered formalin and scratches were imaged with ImageJ and the extent of wound closure was calculated.
A series of 11 compounds were assayed in scratch wound assays to evaluate the effect of CA-IX inhibition on cellular migration in air and hypoxia. […] Cells were then cultured in air or hypoxia and migration analysed 24 h later relative to vehicle treated controls.

[2] = tested on: HT29 colon carcinoma cells; experiment: Mouse xenograft model, HT29 colon carcinoma; assay type: in vivo, mice
MDA231-EGFP cells = experiment: Orthotopic MDA231-EGFP mammary fat pad tumour and lung clonogen (metastasis) model; assay type: in vivo, mice; conditions: 10 mg/kg, 5 days on, 2 days off
Description: 16 mice were implanted with 0.1 ml of a 5×10^7/ml suspension of MDA231-EGFP cells into the mammary fat pad of anaesthetized mice. The cells were prepared in a 1:1 mix of Matrigel: serum-free RMPI.
Mouse condition was monitored daily and tumour volumes recorded at least 3× per week.
Once tumours reached approximately 100 mm^3, they were randomised in to the following treatment groups:
Group 1: 8 mice implanted with MDA231-EGFP cells received vehicle administered in a “5 days on, 2 days” off schedule (ie Mon-Fri dosing each week).
Group 2: 8 mice implanted with MDA231-EGFP cells received CA-IX inhibitor S4 administered at 10 mg/kg dose in a “5 days on, 2 days” off schedule (ie Mon-Fri dosing each week).
Treatment was continued until primary tumours reached a designated endpoint volume of approx 1000 mm^3.
Mouse health and condition was monitored throughout and weights recorded up to 3 times per week.
Before sacrifice Pimonidazole at 0.2 ml of 10 mg/ml solution i/p (2 h before) and 0.1 ml of a 6 mg/ml Hoechst solution (iv) (1 minute before) were administered. Tumour and lungs were rapidly removed for processing.
Clonogens were assessed in lungs using a clonogenic assay. About a quarter of the total lung tissue was taken and weighed. […] Clones were then stained with bromophenol blue and counted, calculating the number per mg of tissue following correction for the dilution.

[3] = tested on: EV/2 CA IX expressing cells (HT-29); experiment: Clonogenic survival after irradiation, EV/2 cells; assay type: cell-based, human; conditions: S4 33 μM 23 h
Description: (§1) Cells were incubated with S4 1 h after the start of the anoxic/normoxic exposure, during 23 h. […] After incubation, cells were irradiated on ice (MCN 225 industrial X-ray tube (Philips, Eindhoven, NL) at 225 kV and 10 mA under the respective oxygen concentrations using different doses (Normoxia: 0, 2, 4, 6, and 8 Gy; Anoxia: 0, 4, 8, 12 and 16 Gy). After irradiation, cells were washed, trypsinized and plated for the clonogenic survival assay and incubated under standard culture conditions until colonies were formed (14 days). Colonies were fixed and stained with 4% methylene blue in 70% ethanol. Plating efficiency was determined by counting colonies consisting of >50 cells and correcting for the number of cells seeded.

[4] = tested on: 94/1 CA IX knock down cells (HT-29); experiment: Clonogenic survival after irradiation, 94/1 cells; assay type: cell-based, human
Description: as §1

[5] = Proliferation/viability assays; assay type: cell-based; conditions: 33 μM
Description: CA IX inhibition, either using a genetic approach (knock down) or pharmacological (S4) results in a sensitization to irradiation. Genetically or pharmacologically, this sensitization occurs to a similar extent. Pharmacological testing was performed at 33 μM, a concentration selected based on no-toxicity under normoxic conditions based on proliferation/viability assays.

FaDU head and neck cells = experiment: FaDU spheroid clonogenicity assay with doxorubicin or radiation; assay type: cell-based; conditions: listed as S4
Description: These studies were undertaken using tumour cells grown into 3-D spheroid cultures that have a natural oxygen gradient. Spheroids of FaDU head and neck cells were generated and treated for 24 h with S4 or vehicle alone; doxorubicin alone or in combination with S4; and S4 or vehicle plus 10 Gy radiotherapy given at the end of the 24 h exposure. Spheroids were treated with trypsin to generate single cell suspensions and plated at various dilutions. Clonogenecity was then recorded per spheroid.
Spheroids were generated by the “liquid overlay technique”. […] The coating prevents the cells from forming monolayers and gives rise of spheroid growth.
The spheroids were grown in a CO2-incubator for 5-7 days. Thereafter, the spheroids were collected and grown in a spinner flask for an additional 5-7 days until they reached a diameter of ˜500-750 μm (10%-0.1% O2 gradient in spheroid).
Spheroids were pooled for the following treatments: • 1. Vehicle for 24 hours • 2. […] Doxorubicin (10 μM) for 24 h • 4. Vehicle for 24 hours followed by 10 Gy radiotherapy • 5.
Directly thereafter, spheroids were digested to single cells using trypsin/EDTA and the cells seeded at a range of concentration in culture plates (clonogenicity assay).
After about a week the cells were stained with methylene blue and the number of colonies counted.

[6] = tested on: EV/2 CA IX expressing cells (HT-29); experiment: FC11-489A bis binding, fluorescence staining, EV/2 cells; assay type: cell-based, human; conditions: 100 μM
Description: (§2) Cells were mounted onto slides with Fluorescence Mounting Medium (DAKO) and analyzed with a Zeiss Axioskop fluorescence microscope using FIT-C filter settings.
(§3) Each staining picture was loaded into Image) analysis software (Image J 1.38x NIH USA, http://rsb.info.nih.gov/ij/Java 1.5.0—17), converted to 8-bit images, thresholded to exclude areas without cells and all remaining pixels were analyzed for their intensity.
(§4) For each oxygen condition, for at least 350 pixels fluorescence intensity was analyzed.

[7] = tested on: 94/1 CA IX knock down cells (HT-29); experiment: FC11-489A bis binding, fluorescence staining, 94/1 cells; assay type: cell-based, human; conditions: 100 μM, normoxia, hypoxia, reoxygenation, listed as FC11-489A bis
Description: as §2, §3, §4

[8] = tested on: 94/1 CA IX knock down cells (HT-29); experiment: FC11-489A bis binding, plate reader, 94/1 cells; assay type: cell-based, human; conditions: 100 μM, normoxia, hypoxia, reoxygenation
Text: (§5) Plates were placed in a BMG microplate reader FLUOstare Omega using following protocol: Fluorescence intensity—Well scanning using 5×5 scan matrix in a diameter of 10 mm with 10 flashes per scan point, a gain of 1000 and 355 nm-460 nm filter settings.

[9] = tested on: EV/2 CA IX expressing cells (HT-29); experiment: FC11-489A bis binding, plate reader, EV/2 cells; assay type: cell-based, human; conditions: 100 μM
Text: as §5

[10] = tested on: 94/1 CA IX knock down cells (HT-29); experiment: FC11-489A bis binding, flow cytometer, 94/1 cells; conditions: 100 μM, normoxia, hypoxia, reoxygenation, FACS
Description: (§6) Single suspensions were obtained by passing cells through 70 μm nylon cell strainers (BD Biosciences). Mean fluorescence intensity was analyzed using a FACSort flow cytometer (BD Biosciences) using FIT-C filter settings.

[11] = tested on: EV/2 CA IX expressing cells (HT-29); experiment: FC11-489A bis binding, flow cytometer, EV/2 cells; conditions: 100 μM, FACS
Description: as §6

hCA IX = molecular target: T1, hCA IX (Homo sapiens, UniProt Q16790); experiment: CA-catalysed CO2 hydration stopped-flow inhibition assay, hCA IX; assay type: biochemical; conditions: Table 3, stopped flow assay
T1 construct: made in house
Description: Typically, CA inhibition is measured by assaying for CA-catalysed CO2 hydration activity using an appropriate indicator dye. […] Stopped flow spectrophotometry may used to measure the rate of hydration activity.
The uncatalyzed rates were determined in the same manner and subtracted from the total observed rates. Stock solutions of inhibitor (0.1 mM) were prepared in distilled-deionized water and dilutions up to 0.01 nM were done thereafter with distilled-deionized water Inhibitor and enzyme solutions were preincubated together for 15 min at room temperature in order to allow for the formation of the E-I complex. The inhibition constants were obtained by non-linear least-squares methods using PRISM 3, as reported earlier,^1,2,3 and represent the mean from at least three different determinations. All enzymes were recombinant ones, obtained as reported earlier.^2,3 • 1. Khalifah, R. G. The carbon dioxide hydration activity of carbonic anhydrase. I. Stop-flow kinetic studies on the native human isoenzymes B and C. […] Alterio, V.; Hilvo, M.; Di Fiore, A.; Supuran, C. T.; Pan, P.; Parkkila, S.; Scaloni, A.; Pastorek, J.; Pastorekova, S.; Pedone, C.; Scozzafava, A.; Monti, S. M.; De Simone, G. Crystal structure of the extracellular catalytic domain of the tumor-associated human carbonic anhydrase IX. […] T. Carbonic anhydrase inhibitors: X-ray and molecular modeling study for the interaction of a fluorescent antitumor sulfonamide with isozyme II and IX. J. Am. Chem. Soc. […] J. Am. Chem. Soc.

In the case of `NS(=O)(=O)Oc1ccc(Cl)cc1` [4-chlorophenyl sulphamate], the stability in solution [1] is given as “relatively unstable in solution”.
With `NS(=O)(=O)Oc1ccc(NC(=O)Nc2ccc(Oc3ccccc3)cc2)cc1` [Compound 3h, 4-[(4-phenoxyphenyl)ureido]phenyl sulfamate] the “cellular migration in air and hypoxia relative to vehicle” value (MDA-231 GFP cells) was “inhibitory effects against hypoxic cell migration at concentrations that had minimal effects in air”.
In the case of `NS(=O)(=O)Oc1ccc(NC(=O)Nc2c(F)c(F)c(F)c(F)c2F)cc1` [Compound 3i, 4-[(pentafluorophenyl)ureido]phenyl sulfamate], the “cellular migration in air and hypoxia relative to vehicle” value (MDA-231 GFP cells) was “inhibitory effects against hypoxic cell migration at concentrations that had minimal effects in air”.
In the case of `Cc1cc(C)cc(NC(=O)Nc2ccc(OS(N)(=O)=O)cc2)c1` [Compound 3p, 4-[(3,5-dimethylphenyl)ureido]phenyl sulfamate], the “volume of the tumour versus control” value ([2]; HT29 xenograft, FIG. 3) was “significant reduction in the volume of the tumour”, the “reduction of the tumor growth” value ([2]; highest dosage of CA inhibitor, HT29 xenograft in nude CD1 mice) was 30% and the “number of metastatic MDA-231 clonogens (colonies per gram of lung tissue) versus vehicle” value (MDA231-EGFP cells; FIG. 5) was “significantly fewer metastatic clonogens”. For the same molecule, the “tumour volume against time versus vehicle” value (MDA231-EGFP cells; orthotopic MDA-231 tumours, FIG. 4) was “little or no effect on the growth of the orthotopic MDA-231 tumours”, the “sensitization to irradiation, 24 h anoxia” value ([3]; anoxia, 8, 12 and 16 Gy, FIG. 18) was “a sensitization to irradiation was observed” and the “sensitization to irradiation, normoxic exposure” value ([3]; normoxia, 0-8 Gy) was “no sensitization to irradiation was demonstrated”. For the same molecule, the “sensitization to irradiation, normoxic exposure” value ([4]; S4 33 μM 23 h, normoxia) was “no sensitization to irradiation was demonstrated”, the “effect on radiosensitivity of knock down cells” value ([4]; S4 33 μM pretreatment) was “had no effect on the radiosensitivity” and the “toxicity under normoxic conditions” value [5] was “no-toxicity”. For the same molecule, the “clonogenic survival, combination with radiation” value (FaDU head and neck cells; S4 33 μM 24 h plus 10 Gy radiotherapy) was “reduced colongenic survival compared with either agent alone; also recorded: significant reduction in colony formation per spheroid”, the “clonogenic survival, combination with doxorubicin” value (FaDU head and neck cells; S4 33 μM plus doxorubicin 10 μM, 24 h) was “reduced colongenic survival compared with either agent alone; also recorded: significant reduction in colony formation per spheroid” and the “clonogenicity per spheroid, inhibitor alone” value (FaDU head and neck cells; S4 alone (33 μM), 24 h, FIG. 9) was “little effect on growth of cells isolated from the spheroids; also recorded: little effect on cell growth”.
For `NS(=O)(=O)Oc1ccc(NC(=S)Nc2ccc(-c3c4ccc(=O)cc-4oc4cc(O)ccc34)c(C(=O)O)c2)cc1` [Compound 20, 2-(3-Hydroxy-6-oxo-6H-xanthen-9-yl)-5-(3-(4-(sulfamoyloxy)phenyl)thioureido)benzoic acid], the binding upon reoxygenation ([6]; 24 h hypoxia then 1 h air, listed as FC11-489A bis) was “reduced upon reoxygenation to levels similar as normoxia exposure; also recorded: dramatically reduced”, the “binding (immunofluorescence), hypoxia versus normoxia” value ([6]; hypoxia 0.2% 24 h, FIG. 14/15, listed as FC11-489A bis) was “significant higher binding” and the “binding at CA IX knock down cells” value [7] was “lower for all experimental conditions compared to the EV/2 cells; also recorded: No significant binding”. For the same molecule, the “binding at CA IX knock down cells” value [8] was “No significant binding”, the “binding upon reoxygenation versus hypoxic conditions” value ([9]; 24 h hypoxia then 1 h air) was “dramatically reduced” and the “binding (fluorescence intensity), hypoxia versus normoxia” value ([9]; hypoxia 0.2% 24 h, FIG. 12) was “significant higher binding”. The “binding at CA IX knock down cells” value [10] was “No significant binding”, the “binding upon reoxygenation versus hypoxic conditions” value ([11]; 24 h hypoxia then 1 h air) was “dramatically reduced” and the “binding (mean fluorescence intensity), hypoxia versus normoxia” value ([11]; hypoxia 0.2% 24 h, FIG. 13) was “significant higher binding”. The pKi (hCA IX) was 7.85.
